The assay concerns the target T1, HCMV polymerase (Human cytomegalovirus, UniProt P08546).
T1 construct: made in house; host or cells: SF-9 insect cells infected with recombinant baculovirus
The assay can be described thus: HCMV polymerase assay (scintillation proximity assay). It is filed as biochemical. The following applies: percentage of inhibition at 25 μM concentration in CMV polymerase assay. In a few lines: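 Values are percent inhibition at 25 μM, measured by scintillation proximity after capture of biotinylated poly(dA)-oligo(dT) (6 nM) extended with 90 nM 3H-dTTP. Recombinant SF-9-derived enzyme reacted 30 min at 25 or 37 °C in HEPES pH 7.5/KCl/MgCl2/BSA buffer, ±2 mM CHAPS, before EDTA termination.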
T1 sequence (P08546 whole entry): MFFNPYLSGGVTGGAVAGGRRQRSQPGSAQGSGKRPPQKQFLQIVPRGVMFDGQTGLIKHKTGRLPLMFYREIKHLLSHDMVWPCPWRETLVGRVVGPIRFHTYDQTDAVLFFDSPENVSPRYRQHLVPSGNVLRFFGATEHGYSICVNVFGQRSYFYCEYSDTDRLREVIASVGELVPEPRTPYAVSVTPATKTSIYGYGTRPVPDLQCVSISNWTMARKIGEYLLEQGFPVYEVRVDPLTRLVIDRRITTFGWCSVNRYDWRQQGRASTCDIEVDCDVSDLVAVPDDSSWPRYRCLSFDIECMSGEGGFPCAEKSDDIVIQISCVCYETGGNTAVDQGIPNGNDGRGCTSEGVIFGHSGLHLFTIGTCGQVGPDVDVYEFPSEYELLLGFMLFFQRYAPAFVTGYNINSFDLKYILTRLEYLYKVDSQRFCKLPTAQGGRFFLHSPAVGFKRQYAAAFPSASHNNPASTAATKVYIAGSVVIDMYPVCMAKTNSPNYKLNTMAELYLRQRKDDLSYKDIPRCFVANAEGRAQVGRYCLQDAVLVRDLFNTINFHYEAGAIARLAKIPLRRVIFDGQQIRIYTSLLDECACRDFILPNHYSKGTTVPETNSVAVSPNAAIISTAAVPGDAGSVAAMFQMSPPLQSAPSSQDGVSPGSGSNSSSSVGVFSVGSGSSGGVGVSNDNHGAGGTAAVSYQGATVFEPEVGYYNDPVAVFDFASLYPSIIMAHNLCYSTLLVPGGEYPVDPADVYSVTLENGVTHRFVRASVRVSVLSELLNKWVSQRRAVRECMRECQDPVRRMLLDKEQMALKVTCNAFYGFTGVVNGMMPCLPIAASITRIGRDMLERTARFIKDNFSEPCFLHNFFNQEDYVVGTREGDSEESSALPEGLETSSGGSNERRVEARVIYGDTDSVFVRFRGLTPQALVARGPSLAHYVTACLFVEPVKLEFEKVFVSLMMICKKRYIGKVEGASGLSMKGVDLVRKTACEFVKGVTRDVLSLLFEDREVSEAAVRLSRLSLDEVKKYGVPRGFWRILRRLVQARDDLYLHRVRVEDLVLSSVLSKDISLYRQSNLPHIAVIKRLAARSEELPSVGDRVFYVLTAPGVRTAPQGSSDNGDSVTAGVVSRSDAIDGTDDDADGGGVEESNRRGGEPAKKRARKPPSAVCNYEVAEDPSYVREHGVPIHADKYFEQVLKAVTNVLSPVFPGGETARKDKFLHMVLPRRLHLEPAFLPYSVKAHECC
As usually defined, the inhibition is the drop in the measured response relative to a control, in per cent. In the case of `O=C(Nc1nnc(NCCNc2ccccc2)s1)c1cc2ccccc2s1` [compound 236, N-{5-[(2-anilinoethyl)amino]-1,3,4-thiadiazol-2-yl}-1-benzothiophene-2-carboxamide], testing at 25 µM gave an inhibition of 41.6%. Take `CCOc1ccc2ccccc2c1C(=O)Nc1nnc(NCc2cccs2)s1` [compound 78, 2-ethoxy-N-{5-[(2-thienylmethyl)amino]-1,3,4-thiadiazol-2-yl}-1-naphthamide]: the inhibition at 25 µM came to 68.2%. On the same count and under the same terms, the result for `CC(C)(C)OC(=O)CCNc1nnc(NC(=O)c2c(Cl)cccc2Cl)s1` [compound 338, tert-butyl 3-({5-[(2,6-dichlorobenzoyl)amino]-1,3,4-thiadiazol-2-yl}amino)propanoate] reads 31.6%; that for `O=C(/C=C/c1ccccc1)Nc1nnc(NCCCN2CCCC2=O)s1` [compound 130, (E)-N-(5-{[3-(2-oxo-1-pyrrolidinyl)propyl]amino}-1,3,4-thiadiazol-2-yl)-3-phenyl-2-propenamide], 58.2%. Regarding `CCCCCCCCCCCNc1nnc(NC(=O)c2ccc(C)cc2)s1` [compound 167, 4-methyl-N-[5-(undecylamino)-1,3,4-thiadiazol-2-yl]benzamide], at 25 µM the inhibition was 50.8%.

Molecule `Cc1ccc(C(=O)Nc2nnc(NCCCN3CCCC3=O)s2)cc1` [compound 395, 4-methyl-N-(5-{[3-(2-oxo-1-pyrrolidinyl)propyl]amino}-1,3,4-thiadiazol-2-yl)benzamide] displayed an inhibition at 25 µM of 25.9%.

With `N#Cc1ccc(C(=O)Nc2nnc(NC3CCCCCC3)s2)cc1` [compound 103, 4-cyano-N-[5-(cycloheptylamino)-1,3,4-thiadiazol-2-yl]benzamide], the inhibition at 25 µM was determined as 64.9%. In turn, `O=C(Nc1nnc(NCCNc2ccccc2)s1)c1ccc2c(c1)C(=O)OC2=O` [compound 6, N-{5-[(2-anilinoethyl)amino]-1,3,4-thiadiazol-2-yl}-1,3-dioxo-1,3-dihydro-2-benzofuran-5-carboxamide] showed an inhibition at 25 µM of 99.9%. The same measure, in the same setting: the result for `O=C(Nc1nnc(NC2CCc3ccccc32)s1)c1c(Cl)cccc1Cl` (centres unmarked) [compound 115, 2,6-dichloro-N-[5-(2,3-dihydro-1H-inden-1-ylamino)-1,3,4-thiadiazol-2-yl]benzamide] reads 62%; that for `COc1ccc(CNc2nnc(NC(=O)c3ccc(C#N)cc3)s2)cc1OC` [compound 244, 4-cyano-N-{5-[(3,4-dimethoxybenzyl)amino]-1,3,4-thiadiazol-2-yl}benzamide], 41%.

`CCOc1ccc2ccccc2c1C(=O)Nc1nnc(NCCNC(C)=O)s1` [compound 463, N-(5-{[2-(acetylamino)ethyl]amino}-1,3,4-thiadiazol-2-yl)-2-ethoxy-1-naphthamide] showed an inhibition at 25 µM of 20.3%. `O=C(/C=C/c1ccccc1Cl)Nc1nnc(NCCSc2ccccc2)s1` [compound 322, (E)-3-(2-chlorophenyl)-N-(5-{[2-(phenylsulfanyl)ethyl]amino}-1,3,4-thiadiazol-2-yl)-2-propenamide] yielded an inhibition at 25 µM of 33.2%. In turn, `O=C(Nc1nnc(NCC2CCCCC2)s1)c1ccc(Cl)c(Cl)c1` [compound 384, 3,4-dichloro-N-{5-[(cyclohexylmethyl)amino]-1,3,4-thiadiazol-2-yl}benzamide] displayed an inhibition at 25 µM of 27.2%. The same measure, in the same setting: for `O=C(/C=C/c1ccccc1)Nc1nnc(NCCc2ccccc2)s1` [compound 262, (E)-N-[5-(phenethylamino)-1,3,4-thiadiazol-2-yl]-3-phenyl-2-propenamide] the value was 39.5%; for `CCOc1ccc2ccccc2c1C(=O)Nc1nnc(NCC2CC2)s1` [compound 177, N-{5-[(cyclopropylmethyl)amino]-1,3,4-thiadiazol-2-yl}-2-ethoxy-1-naphthamide], 49%; for `O=C(Nc1nnc(NC2CCCc3ccccc32)s1)c1cc2ccccc2s1` (centres unmarked) [compound 343, N-[5-(1,2,3,4-tetrahydro-1-naphthalenylamino)-1,3,4-thiadiazol-2-yl]-1-benzothiophene-2-carboxamide], 31.2%. On the same count and under the same terms, for `O=C(Nc1nnc(NCc2ccc(Cl)c(Cl)c2)s1)c1ccc(F)cc1F` [compound 416, N-{5-[(3,4-dichlorobenzyl)amino]-1,3,4-thiadiazol-2-yl}-2,4-difluorobenzamide] the value was 24.5%; for `CCCCCCCC/C=C/CCCCCCCC(=O)Nc1nnc(NCCC(=O)OC(C)(C)C)s1` [compound 79, tert-butyl-3-({5-[(E)-9-octadecenoylamino]-1,3,4-thiadiazol-2-yl}amino)propanoate], 68%. `O=C(Nc1nnc(NCc2cccc3ccccc23)s1)c1ccc([N+](=O)[O-])o1` [compound 44, N-{5-[(1-naphthylmethyl)amino]-1,3,4-thiadiazol-2-yl}-5-nitro-2-furamide] displayed an inhibition at 25 µM of 83.3%. Consider `O=C(/C=C/c1ccccc1Cl)Nc1nnc(NCCNc2ccccc2)s1` [compound 294, (E)-N-{5-[(2-anilinoethyl)amino]-1,3,4-thiadiazol-2-yl}-3-(2-chlorophenyl)-2-propenamide], for which testing at 25 µM gave an inhibition of 35.4%.

Molecule `COc1ccccc1C(=O)Nc1nnc(NCCc2c[nH]c3ccccc23)s1` [compound 303, N-(5-{[2-(1H-indol-3-yl)ethyl]amino}-1,3,4-thiadiazol-2-yl)-2-methoxybenzamide] gave an inhibition at 25 µM of 34.7%. For the molecule `O=C(Nc1nnc(NCc2ccncc2)s1)c1cc2ccccc2s1` [compound 222, N-{5-[(4-pyridinylmethyl)amino]-1,3,4-thiadiazol-2-yl}-1-benzothiophene-2-carboxamide], testing at 25 µM gave an inhibition of 43.2%. As to `NS(=O)(=O)c1ccc(CCNc2nnc(NC(=O)c3ccc(Br)cc3)s2)cc1` [compound 152, N-(5-{[4-(aminosulfonyl)phenethyl]amino}-1,3,4-thiadiazol-2-yl)-4-bromobenzamide], 25 µM produced 53.9% inhibition. The same measure, in the same setting: for `O=C(Nc1nnc(NCCc2c[nH]c3ccccc23)s1)c1ccc(C(F)(F)F)cc1` [compound 284, N-(5-{[2-(1H-indol-3-yl)ethyl]amino}-1,3,4-thiadiazol-2-yl)-4-(trifluoromethyl)benzamide] the value was 36.7%; for `O=C(Nc1nnc(NCCCNC2CCCCC2)s1)c1ccc2c(c1)C(=O)OC2=O` [compound 2, N-(5-{[3-(cyclohexylamino)propyl]amino}-1,3,4-thiadiazol-2-yl)-1,3-dioxo-1,3-dihydro-2-benzofuran-5-carboxamide], 100%. As for `O=C(Nc1nnc(NCCNc2ccccc2)s1)c1ccc(S(=O)(=O)F)cc1` [compound 204, 4-[({5-[(2-anilinoethyl)amino]-1,3,4-thiadiazol-2-yl}amino)carbonyl]benzenesulfonyl fluoride], the “% Inhib” value was found to be 45.0%. Consider `O=C(Nc1nnc(NCCCN2CCCC2=O)s1)c1cc(F)cc(F)c1` [compound 228, 3,5-difluoro-N-(5-{[3-(2-oxo-1-pyrrolidinyl)propyl]amino}-1,3,4-thiadiazol-2-yl)benzamide], for which the inhibition at 25 µM was determined as 42.8%.

For `O=C(/C=C/c1ccccc1)Nc1nnc(NCCN2CCCC2)s1` [compound 432, (E)-3-phenyl-N-(5-{[2-(1-pyrrolidinyl)ethyl]amino}-1,3,4-thiadiazol-2-yl)-2-propenamide], 25 µM produced 23% inhibition.

In the case of `O=C(Nc1nnc(NC2CCCc3ccccc32)s1)c1cccc([N+](=O)[O-])c1` (centres unmarked) [compound 347, 3-nitro-N-[5-(1,2,3,4-tetrahydro-1-naphthalenylamino)-1,3,4-thiadiazol-2-yl]benzamide], testing at 25 µM gave an inhibition of 30.6%. The same measure, in the same setting: the result for `O=C(Nc1nnc(NCCCn2ccnc2)s1)c1c(Cl)cccc1Cl` [compound 99, 2,6-dichloro-N-(5-{[3-(1H-imidazol-1-yl)propyl]amino}-1,3,4-thiadiazol-2-yl)benzamide] reads 65.6%; that for `CCOc1ccc2ccccc2c1C(=O)Nc1nnc(NCc2cccnc2)s1` [compound 66, 2-ethoxy-N-{5-[(3-pyridinylmethyl)amino]-1,3,4-thiadiazol-2-yl}-1-naphthamide], 71.9%. In turn, `CCOc1ccc2ccccc2c1C(=O)Nc1nnc(NCC2CCCCC2)s1` [compound 431, N-{5-[(cyclohexylmethyl)amino]-1,3,4-thiadiazol-2-yl}-2-ethoxy-1-naphthamide] came in with an inhibition at 25 µM of 23.1%. The same measure, in the same setting: the result for `CCOc1ccc2ccccc2c1C(=O)Nc1nnc(NCCCn2ccnc2)s1` [compound 242, 2-ethoxy-N-(5-{[3-(1H-imidazol-1-yl)propyl]amino}-1,3,4-thiadiazol-2-yl)-1-naphthamide] reads 41.3%; that for `O=C(/C=C/c1ccccc1Cl)Nc1nnc(NCc2ccc3c(c2)OCO3)s1` [compound 117, (E)-N-{5-[(1,3-benzodioxol-5-ylmethyl)amino]-1,3,4-thiadiazol-2-yl}-3-(2-chlorophenyl)-2-propenamide], 61.5%; that for `CCCCCCCC/C=C/CCCCCCCC(=O)Nc1nnc(NCCc2ccccc2)s1` [compound 105, (E)-N-[5-(phenethylamino)-1,3,4-thiadiazol-2-yl]-9-octadecenamide], 64.6%. The same measure, in the same setting: for `O=C(Nc1nnc(NCc2ccc3c(c2)OCO3)s1)c1cc2ccccc2s1` [compound 180, N-{5-[(1,3-benzodioxol-5-ylmethyl)amino]-1,3,4-thiadiazol-2-yl}-1-benzothiophene-2-carboxamide] the value was 48.4%. Molecule `CCCCCCCC/C=C/CCCCCCCC(=O)Nc1nnc(NCc2cccnc2)s1` [compound 72, (E)-N-{5-[(3-pyridinylmethyl)amino]-1,3,4-thiadiazol-2-yl}-9-octadecenamide] had an inhibition at 25 µM of 69.3%. Molecule `CCCCCCCC/C=C/CCCCCCCC(=O)Nc1nnc(NCCc2cccs2)s1` [compound 41, (E)-N-(5-{[2-(2-thienyl)ethyl]amino}-1,3,4-thiadiazol-2-yl)-9-octadecenamide] returned an inhibition at 25 µM of 85.7%.

(Values after patent publication US6150385A, “1,3,4-thiadiazoles useful for the treatment of CMV infections” (Pharmacia & Upjohn Company, priority 1999, dated 2000).)
